Columns and labels:
Envelope glycoprotein = target: T1, Envelope glycoprotein (Zaire ebolavirus (strain Mayinga-76) (ZEBOV) (Zaire Ebola virus), UniProt Q05320); experiment: Binding affinity to Ebola virus Zaire Mayinga-76 recombinant GP protein by SYPRO orange dye-based fluorescence assay; parameters: species or system 1976
T1 sequence (Q05320 whole entry): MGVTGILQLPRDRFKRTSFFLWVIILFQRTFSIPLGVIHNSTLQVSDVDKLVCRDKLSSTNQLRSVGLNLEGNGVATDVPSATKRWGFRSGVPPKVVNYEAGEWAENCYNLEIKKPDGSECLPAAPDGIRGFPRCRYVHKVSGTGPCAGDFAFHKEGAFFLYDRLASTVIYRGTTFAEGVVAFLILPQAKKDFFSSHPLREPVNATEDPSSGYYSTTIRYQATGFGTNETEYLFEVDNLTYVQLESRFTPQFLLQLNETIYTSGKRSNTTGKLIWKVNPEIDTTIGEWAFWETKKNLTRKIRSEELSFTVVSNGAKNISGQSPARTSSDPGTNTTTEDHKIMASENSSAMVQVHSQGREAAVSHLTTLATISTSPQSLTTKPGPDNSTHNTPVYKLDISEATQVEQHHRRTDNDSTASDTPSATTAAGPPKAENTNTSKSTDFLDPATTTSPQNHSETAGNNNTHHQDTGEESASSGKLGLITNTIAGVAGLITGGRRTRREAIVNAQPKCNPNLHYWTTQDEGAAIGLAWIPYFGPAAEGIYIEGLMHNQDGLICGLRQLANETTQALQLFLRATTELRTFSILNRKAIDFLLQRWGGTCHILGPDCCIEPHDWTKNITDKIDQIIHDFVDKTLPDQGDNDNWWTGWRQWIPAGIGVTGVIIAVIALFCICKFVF

Ebolavirus [1] = experiment: microbe, parasite or virus in culture; assay type: functional; conditions: Orthoebolavirus, Vero C1008, 48 h
Ebolavirus [2] = experiment: microbe, parasite or virus in culture; assay type: functional, cell-based; conditions: Orthoebolavirus, HepG2, 48 h
[3] = target: T2, Envelope glycoprotein (Zaire ebolavirus (strain Mayinga-76) (ZEBOV) (Zaire Ebola virus)) (UniProt Q05320); experiment: Binding affinity to Ebola virus Zaire Mayinga-76 recombinant GP protein assessed as change in melting temperature at 500 uM by SYPRO orange dye-based fluorescence assay; conditions: 1976
T2 sequence (whole entry): T1 sequence (Q05320 whole entry)

| SMILES | Kd (Envelope glycoprotein) [µM] | IC50 (Ebolavirus [1]) [µM] | IC50 (Ebolavirus [2]) [µM] | ΔTm [3] [°C] |
| --- | --- | --- | --- | --- |
| Fc1ccc([C@@H]2CCNC[C@H]2COc2ccc3c(c2)OCO3)cc1 [PAROXETINE] | 650 | 7.45 | 1.38 | -4 |
| CN1[C@@H]2CC[C@@H]1CC(OC(c1ccccc1)c1ccccc1)C2 (relative stereo) |  |  |  | -6 |
| CC(C)COCC(CN(Cc1ccccc1)c1ccccc1)N1CCCC1 (configuration not stated) [BEPRIDIL] | 290 | 5.08 | 3.21 | -6 |
| CN[C@H]1CC[C@@H](c2ccc(Cl)c(Cl)c2)c2ccccc21 [SERTRALINE] |  |  |  | -3 |
| CN(C)CCOc1ccc(/C(=C(/CCCl)c2ccccc2)c2ccccc2)cc1 [TOREMIFENE] |  | 0.162 | 0.026 |  |

— ChEMBL document CHEMBL4024787, “Target Identification and Mode of Action of Four Chemically Divergent Drugs against Ebolavirus Infection” (J Med Chem, 2018)
